Measurements taken from the supplement of paper PMC10307832.

Tests used:
Experiment in all cases: relative viability (nuclei count vs DMSO), 5 days (fraction); higher = more cells survive
TPCA-1 + Lapatinib = compound: C1=CC(=CC=C1C2=CC(=C(S2)NC(=O)N)C(=O)N)F [TPCA-1] + CS(=O)(=O)CCNCc1ccc(-c2ccc3ncnc(Nc4ccc(OCc5cccc(F)c5)c(Cl)c4)c3c2)o1 [Lapatinib] (partner 2 µM)
In short: (§1)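 Values are medians from duplicate plates. Each reflects relative viability, defined as the nuclei count of treated wells over that of vehicle wells. Lung cancer cell lines in 1536-well plates were pin-tool dosed one day after seeding with one drug alone or with a fixed anchor-drug dose plus five library-drug doses (not always all listed) in √10 steps, then fixed, stained and imaged at 4× after 5 days.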

[1] = compound: C1/C(=C\C2=CC=CS2)/C(=O)/C(=C/C3=CC=CS3)/C1 + CS(=O)(=O)N1CCN(Cc2cc3nc(-c4cccc5[nH]ncc45)nc(N4CCOCC4)c3s2)CC1 [Pictilisib] (partner 1 µM)
In short: as §1

TPCA-1 + Olaparib = compound: C1=CC(=CC=C1C2=CC(=C(S2)NC(=O)N)C(=O)N)F [TPCA-1] + O=C(c1cc(Cc2n[nH]c(=O)c3ccccc23)ccc1F)N1CCN(C(=O)C2CC2)CC1 [Olaparib] (partner 8 µM)
In short: as §1

[2] = compound: C1/C(=C\C2=CC=CS2)/C(=O)/C(=C/C3=CC=CS3)/C1 + CC(=O)c1c(C)c2cnc(Nc3ccc(N4CCNCC4)cn3)nc2n(C2CCCC2)c1=O [Palbociclib] (partner 0.5 µM)
In short: as §1

Cell Line | relative viability (TPCA-1 + Lapatinib; first compound 0.04 µM) | relative viability (TPCA-1 + Lapatinib; first compound 0.1265 µM) | relative viability (TPCA-1 + Lapatinib; first compound 0.4 µM) | relative viability (TPCA-1 + Lapatinib; first compound 1.265 µM) | relative viability (TPCA-1 + Lapatinib; first compound 4 µM) | relative viability ([1]; first compound 0.2 µM) | relative viability ([1]; first compound 0.6325 µM) | relative viability ([1]; first compound 2 µM) | relative viability ([1]; first compound 6.325 µM) | relative viability ([1]; first compound 20 µM) | relative viability (TPCA-1 + Olaparib; first compound 0.04 µM) | relative viability (TPCA-1 + Olaparib; first compound 0.1265 µM) | relative viability (TPCA-1 + Olaparib; first compound 0.4 µM) | relative viability (TPCA-1 + Olaparib; first compound 1.265 µM) | relative viability (TPCA-1 + Olaparib; first compound 4 µM) | relative viability ([2]; first compound 0.2 µM) | relative viability ([2]; first compound 0.6325 µM) | relative viability ([2]; first compound 2 µM) | relative viability ([2]; first compound 6.325 µM) | relative viability ([2]; first compound 20 µM)
NCI-H2170 | 0.263 | 0.272 | 0.261 | 0.284 | 0.248 | 0.334 | 0.341 | 0.31 | 0.278 | 0.313 | 0.668 | 0.568 | 0.65 | 0.508 | 0.439 | 0.386 | 0.382 | 0.376 | 0.248 | 0.393
HCC-78 | 0.628 | 0.35 | 0.718 | 0.672 | 0.0936 | 0.197 | 0.216 | 0.288 | 0.216 | 0.209 | 0.917 | 0.844 | 0.892 | 1.01 | 0.493 | 0.486 | 0.457 | 0.534 | – | 0.451
NCI-H1395 | 1.09 | 1.06 | 1.02 | 0.935 | 0.75 | 0.618 | 0.73 | 0.67 | 0.448 | 0.581 | 0.496 | 0.426 | 0.494 | 0.519 | 0.494 | 0.616 | 0.683 | 0.612 | 0.566 | 0.599
NCI-H2126 | 0.827 | 0.736 | 0.808 | 0.749 | 0.669 | 0.511 | 0.477 | 0.505 | 0.485 | 0.488 | 0.951 | 0.924 | 0.911 | 0.875 | 0.88 | 0.343 | 0.339 | 0.363 | 0.332 | 0.374
H3255 | 0.261 | 0.24 | 0.236 | 0.219 | 0.162 | 0.545 | 0.452 | 0.467 | 0.405 | 0.506 | 0.577 | 0.542 | 0.536 | 0.527 | 0.507 | 0.325 | 0.33 | 0.324 | 0.308 | 0.297
HCC-15 | 0.942 | 0.856 | 0.908 | 0.819 | 0.52 | 0.776 | 0.748 | 0.843 | 0.642 | 0.758 | 0.798 | 0.686 | 0.773 | 0.67 | 0.594 | 0.721 | 0.734 | 0.824 | 0.682 | 0.73
NCI-H661 | 0.632 | 0.448 | 0.562 | 0.522 | 0.387 | 0.398 | 0.524 | 0.525 | 0.373 | 0.398 | 0.751 | 0.748 | 0.77 | 0.721 | 0.758 | 0.405 | 0.403 | 0.41 | 0.394 | 0.421
NCI-H2009 | 1.12 | 0.886 | 0.926 | 0.444 | 0.294 | 0.911 | 0.959 | 0.833 | 0.691 | 0.846 | 0.697 | 0.733 | 0.626 | 0.753 | 0.817 | 0.178 | 0.217 | 0.255 | – | 0.208
